Measurements published in patent US20080318070A1, “Water-Soluble Preflux and Usage of the Same” (SHIKOKU CHEMICALS CORPORATION, priority 2005, published 2008).

Columns and labels:
[1] = Solubilization test of imidazole compounds; format: physicochemical; settings: 0.20 g imidazole compound dissolved in 2.0 g carboxylic acid compound; ion-exchange water added until solution became clouded; larger = better solubilization
Procedure: Solubilization Test of Imidazole Compounds
After 0.20 g of 2-pheny-(3,4-dichlorophenyl)imidazole was dissolved in 2.0 g of the carboxylic acid compound for use in the invention, there was measured an amount of water required until the solution became clouded when ion-exchange water was added. The larger amount of water is judged to be more excellent in imidazole compound-solubilization performance of the carboxylic acid compound.
It is recognized that a chemical structure wherein an alkoxy group (R^1—O—) and a carboxymethyl group (—CH2COOH) or a carboxyethyl group (—C2H4COOH) is combined via an alkylene ether chain (—CH2CH(R^2)—O—) enhances the imidazole compound-solubilization performance.

[2] = reported; cited from earlier work

Row | Structure (SMILES) | Amount of water added [1] [mL] | metabolism in the living body [2] | toxic effect [2]
1 | CCCCOCC(C)OCC(C)OCC(C)OCC(=O)O (centres unmarked) [Compound G, 2-{2-[2-(2-butoxy-1-methylethoxy)-1-methylethoxy]-1-methylethoxy}acetic acid] | 2.0 |  | 
2 | CCCOCC(C)OCC(C)OCC(=O)O (centres unmarked) [Compound F, 2-[2-(2-propoxy-1-methylethoxy)-1-methylethoxy]acetic acid] | 3.0 |  | 
3 | CCOCCOCCOCC(=O)O [Compound C, 2-[2-(2-ethoxyethoxy)ethoxy]acetic acid] | 3.6 |  | 
4 | COCC(=O)O [methoxyacetic acid] |  | difficult to metabolize in the living body | causing testicular atrophy or teratogenicity
5 | CCCOCC(=O)O [2-(n-Propoxy)acetic acid] | 2.8 |  | 
6 | CCCCOCC(=O)O [2-(n-Butoxy)acetic acid] | 1.0 |  | 
7 | CCOCC(=O)O [Compound A, 2-Ethoxyacetic acid] | 3.3 |  | 
